In patent EP0060179A1, “Pharmaceutical compositions having anorectic activity” (SANOFI S.A., priority 1981, dated 1982):
Like-named read-outs stand apart in the source and are kept apart here. Marks after values point to notes of the source that are not given here.

Tests used:
[1] = tested on: prise de nourriture chez le rat; assay: Anorectic activity, food intake method in the rat; type: in vivo; conditions: for A/B (index thérapeutique lié à la toxicité aiguë): DL50/DE50; for ED50: 1 h, rat, 30 minutes before food, food consumed in first hour, read-out: B DE50 (dose inhibant de 50% la prise de nourriture)
Experimental: L'activité anorexigène a été évaluée par la méthode de la prise de nourriture chez le rat. On a utilisé des rats femelles de 200 g entrainés pendant 10 jours à manger durant une période de 4 heures et sélectionnés au huitième jour. Au bout du dixième jour, les animaux randomisés ont été divisés en un "groupe contrôle", traité par le seul véhicule, et en plusieurs "groupes traités". Le traitement a été effectué par voie orale et/ou intrapéritonéale 30 minutes avant la présentation de la nourriture et, ensuite, on a mesuré la quantité de nourriture consommée au cours de la première heure.
(§1) Dans le tableau I sont reportés, pour cinq composés représentatifs utiles comme ingrédients actifs dans les compositions selon l'invention: • - la toxicité aiguë, exprimée comme DL50 chez le rat par voie orale ou par voie intrapéritonéale (donnée A); • - l'activité anorexigène, exprimée comme dose orale ou intrapéritonéale inhibant de 50% la prise de nourriture (DE50, donnée B); • - le rapport entre la toxicité aiguë et l'activité anorexigène qui exprime l'index thérapeutique lié à la toxicité aiguë (donnée A/B).

[2] = tested on: taux cérébraux de sérotonine; assay: Brain serotonin levels after administration (Curzon and Green method); type: in vivo
From the text: En particulier, les composés utilisés comme principes actifs des compositions pharmaceutiques de la présente invention, in vivo, ne provoquent pas de déplétion de sérotonine au niveau central. Le tableau II ci-dessous résume les taux cérébraux de sérotonine, en pourcentage par rapport aux contrôles, après administration orale ou intrapéritonéale de quatre ingrédients actifs des compositions pharmaceutiques de la présente invention. La détermination des taux cérébraux, selon Curzon et Green (Brit. J. Pharmacol. 39, 653, 1970), a été effectuée une heure et/ou deux heures après l'administration. La fenfluramine a été utilisée comme produit de référence.

[3] = Acute toxicity (DL50) in the rat; conditions: in vivo
From the text: as §1

[4] = biological target: récepteurs post-synaptiques de la sérotonine; assay: 3H-serotonin binding to rat cortex membranes (Peroutka and Snyder method); conditions: fixed concentration of 3H-serotonin
From the text: L'affinité des composés de la présente invention pour les récepteurs post-synaptiques de la' sérotonine a été déterminée selon la méthode de Peroutka et Snyder (Molec. Pharmacol. 1979, 16, 687-699) qui consiste à incuber des membranes de cortex de rat avec une concentration fixée de ^3H-sérotonine en présence de différentes concentrations de produit. Le tableau III montre la concentration molare de trois ingrédients actifs représentatifs de la présente invention qui donne une inhibition de 50% du binding spécifique au récepteur sérotoninergique (IC50), à savoir la mesure de la capacité du produit d'intéragir avec la ^3H-sérotonine dans le binding à son récepteur. La fenfluramine et la 3-(3-trifluorométhylphényl)-1-propyl-1,2,5,6-tétrahydropyridine (Composé A), décrite par le brevet allemand 2 904 826, ont été utilisées comme composés de référence.

For `CCCCCN1CC=C(c2cccc(C(F)(F)F)c2)CC1` [CM 57756, chlorhydratede 4-(3-trifluorométhylphényl)-1-n-pentyl-1,2,3,6-tétrahydropyridine], the “A/B (index thérapeutique lié à la toxicité aiguë)” value ([1]; os) was 35,4, the ED50 ([1]; po, os) was 8.8 mg/kg and the “taux cérébraux de sérotonine % par rapport aux contrôles” value ([2]; os, 15 mg/kg, 2 h.) was 125 * %. The “taux cérébraux de sérotonine % par rapport aux contrôles” value ([2]; os, 7,5 mg/kg, 2 h.) was 138 ** % and the LD50 ([3]; po, os) was 311 mg/kg.
For `CCCN1CC=C(c2cccc(C(F)(F)F)c2)CC1` [CM 57545, chlorhydratede 4-(3-trifluorométhylphényl)-1-propyl-1,2,3,6-tétrahydropyridine], the “A/B (index thérapeutique lié à la toxicité aiguë)” value ([1]; i.p.) was 17,7, the ED50 ([1]; ip, i.p.) was 7 mg/kg and the “A/B (index thérapeutique lié à la toxicité aiguë)” value ([1]; os) was 22,2. For the same molecule, the ED50 ([1]; po, os) was 8 mg/kg, the “taux cérébraux de sérotonine % par rapport aux contrôles” value ([2]; i.p., 15 mg/kg, 2 h.) was 112% and the “taux cérébraux de sérotonine % par rapport aux contrôles” value ([2]; i.p., 7,5 mg/kg, 2 h.) was 103%. For the same molecule, the LD50 ([3]; ip) was 124 mg/kg and the LD50 ([3]; po, os) was 178 mg/kg.
With `FC(F)(F)c1cccc(C2=CCN(Cc3ccccc3)CC2)c1` [CM 57451, chlorhydratede 4-(3-trifluorométhylphényl)-1-benzyl-1,2,3,6-tétrahydropyridine] the “A/B (index thérapeutique lié à la toxicité aiguë)” value ([1]; i.p.) was 14,6, the ED50 ([1]; ip, i.p.) was 15 mg/kg and the “A/B (index thérapeutique lié à la toxicité aiguë)” value ([1]; os) was 33,3. The ED50 ([1]; po, os) was 18 mg/kg, the “taux cérébraux de sérotonine % par rapport aux contrôles” value ([2]; i.p., 15 mg/kg, 1 h.) was 121,2% and the “taux cérébraux de sérotonine % par rapport aux contrôles” value ([2]; i.p., 15 mg/kg, 2 h.) was 112,0%. The “taux cérébraux de sérotonine % par rapport aux contrôles” value ([2]; i.p., 30 mg/kg, 2 h.) was 119,0%, the LD50 ([3]; ip) was 220 mg/kg and the LD50 ([3]; po, os) was 600 mg/kg.
In the case of `FC(F)(F)c1cccc(C2=CCNCC2)c1` [CM 57235, chlorhydratede 4-(3-triflüorométhylphényl)-1,2,3,6-tétrahydropyridine], the “A/B (index thérapeutique lié à la toxicité aiguë)” value ([1]; i.p.) is reported as 11,2, the ED50 ([1]; ip, i.p.) is reported as 8.4 mg/kg and the “A/B (index thérapeutique lié à la toxicité aiguë)” value ([1]; os) is reported as 22. For the same molecule, the ED50 ([1]; po, os) was 15.7 mg/kg, the “taux cérébraux de sérotonine % par rapport aux contrôles” value ([2]; i.p., 15 mg/kg, 1 h.) was 106% and the “taux cérébraux de sérotonine % par rapport aux contrôles” value ([2]; i.p., 15 mg/kg, 2 h.) was 102%. For the same molecule, the “taux cérébraux de sérotonine % par rapport aux contrôles” value ([2]; i.p., 7,5 mg/kg, 2 h.) was 112,0%, the LD50 ([3]; ip) was 94.6 mg/kg and the LD50 ([3]; po, os) was 346 mg/kg.
In the case of `CN1CC=C(c2cccc(C(F)(F)F)c2)CC1` [CM 57548, chlorhydratede 4-(3-trifluorométhylphényl)-1-méthyl-1,2,3,6-tétrahydropyridine], the “A/B (index thérapeutique lié à la toxicité aiguë)” value ([1]; i.p.) is reported as 15,2, the ED50 ([1]; ip, i.p.) is reported as 12.2 mg/kg and the LD50 ([3]; ip) is reported as 186 mg/kg.
For `CCNC(C)Cc1cccc(C(F)(F)F)c1` (stereo not drawn) [fenfluramine, reference compound], the “A/B (index thérapeutique lié à la toxicité aiguë)” value ([1]; i.p.) was 15,8, the ED50 ([1]; ip, i.p.) was 5.4 mg/kg and the “A/B (index thérapeutique lié à la toxicité aiguë)” value ([1]; os) was 25,1. The ED50 ([1]; po, os) was 4 mg/kg, the “taux cérébraux de sérotonine (result in words)” value ([2]; at anorectic doses) was “réduction importante de sérotonine cérébrale” and the “taux cérébraux de sérotonine % par rapport aux contrôles” value ([2]; i.p., 5,0 mg/kg, 1 h.) was 82,9 * %. The “taux cérébraux de sérotonine % par rapport aux contrôles” value ([2]; i.p., 7,5 mg/kg, 1 h.) was 81,6 * %, the “taux cérébraux de sérotonine % par rapport aux contrôles” value ([2]; i.p., 7,5 mg/kg, 2 h.) was 53,1 ** % and the IC50 [4] was greater than 10 µM. For the same molecule, the LD50 ([3]; ip) was 85.6 mg/kg and the LD50 ([3]; po, os) was 100 mg/kg.
